Key:
[1] = system: articular cartilage of the right knee joint, MIA-induced OA; test: Histopathologic analysis of right knee joint tissue (modified Mankin scoring), MIA-induced OA; format: in vivo, Sprague Dawley rats; conditions: rats; for morphological observation of articular cartilage of the right knee joint: 30 μL intraarticular on day 3 and day 14, day 28, versus pathological control, data not shown
Description: (§1) The Sprague Dawley rats were divided into five groups, including one normal control group, one pathological control group, one comparative group, and two experimental groups (i.e., experimental groups 1 to 2) (n=5 rats in each group).
The right knee joint of the respective rat in the pathological control group, the comparative group, and the experimental groups 1 and 2 was intraarticularly injected with 30 μL of a monosodium iodoacetate (MIA) solution (50 g/L, in 0.9% normal saline). In addition, the right knee joint of the respective rat in the normal control group was intraarticularly injected with 30 μL of 0.9% normal saline. […]
The tissue section was subjected to hematoxylin-eosin staining, and Safranin 0 and fast green staining using a staining protocol well-known to those skilled in the art, and was then observed under an optical microscope (Olympus, CKX41) at a magnification of 200×. Two areas of the respective tissue section were randomly selected and photographed, and pathological changes (such as cartilage damage, chondrocyte loss, and proteoglycan loss) in the respective tissue section was assessed according to the modified Mankin scoring system described in Pauli C. et al. (2012), Osteoarthritis Cartilage, 20:476-485. The degrees of cartilage damage, chondrocyte loss, and proteoglycan loss were scored on a scale from 1 to 5. […]
The data thus obtained were analyzed according to the method described in section 1 of the “General Procedures”.

[2] = system: serum COMP, TNF-α, IL-1β, IL-6, IL-17A, PGE2 and NO in MIA-induced OA; test: OA biomarkers and inflammatory markers in serum sample (ELISA, Griess assay), MIA-induced OA; format: in vivo, Sprague Dawley rats; conditions: rat serum; for content of cartilage oligomeric matrix protein (COMP): day 28, FIG. 3; for content of IL-1β / content of IL-6 / content of IL-17A / content of TNF-α: day 28, FIG. 4; for content of PGE2: day 28, FIG. 5; for content of NO: day 28, Griess assay, FIG. 5
Description: as §1
The right knee joint of the respective rat in the pathological control group, the comparative group, and the experimental groups 1 and 2 was intraarticularly injected with 30 μL of a monosodium iodoacetate (MIA) solution (50 g/L, in 0.9% normal saline). In addition, the right knee joint of the respective rat in the normal control group was intraarticularly injected with 30 μL of 0.9% normal saline.
On day 3 and day 14 after injection of the MIA solution, the right knee joint of the respective rat in the comparative group was intraarticularly injected with 30 μL of 1% HA, the right knee joint of the respective rat in the experimental group 1 was intraarticularly injected with 30 μL of the EGF solution (containing 20 μg/g EGF), the right knee joint of the respective rat in the experimental group 2 was intraarticularly injected with 30 μL of the mixture solution (containing 20 μg/g EGF), and the right knee joint of the respective rat in the pathological control group was intraarticularly injected with 30 μL of 0.9% normal saline. In addition, the rats of the normal control group received no treatment.
After determining the diameter of right knee joint at the end of day 28 as described in section D of this example, the rats in each group were sacrificed by virtue of 95% CO2 asphyxiation. Next, a blood sample was collected from the heart of each rat through arterial puncture using a 25G needle, and was then subjected to centrifugation at 1,500 g and 25° C. for 10 minutes, so as to obtain a serum sample. Thereafter, the right knee joint tissue of the respective rat in each group was obtained from each rat carcass and was washed with 0.9% normal saline.
The respective serum sample obtained in section E of this example was diluted 5-fold with RPMI 1640 medium. Thereafter, the content of cartilage oligomeric matrix protein (COMP) was determined using a rat COMP ELISA Kit (Cusabio, Cat. No. CSB-E13833r) in accordance with the manufacturer's instructions. In addition, the contents of TNF-α, IL-1β, IL-6, and IL-17A were respectively determined using a TNF-α ELISA Kit (Invitrogen, Cat. No. 88-7340-88), an IL-1β ELISA Kit (Invitrogen, Cat. No. 88-6010-22), an IL-6 ELISA Kit (Invitrogen, Cat. No. 88-50625-88), and an IL-17A ELISA Kit (Invitrogen, Cat. No. 88-7170-22) in accordance with the manufacturer's instructions. The content of prostaglandin E2 (PGE2) was determined using a PGE2 ELISA Kit (Cusabio, Cat. No. CSB-E07967r) in accordance with the manufacturer's instructions.
Moreover, the content of nitric oxide (NO) was determined using the Griess assay. Briefly, 100 μL of the respective serum sample obtained in section E of this example was mixed with 100 μL of a Griess reagent (containing 0.2% N-(1-Naphthyl)ethylenediamine, 2% sulfanilamide, and 5% phosphoric acid), followed by being left standing for reaction to proceed at room temperature for 10 minutes. The resultant reaction mixture was subsequently subjected to determination of absorbance at a wavelength of 540 nm (OD540) using a spectrophotometer. The OD540 values obtained were subsequently converted to concentration expressed in pg/mL based on a correlation curve previously prepared by plotting different known concentrations of sodium nitrate standards versus OD540 values thereof.
The data thus obtained were analyzed according to the method described in section 1 of “General Procedures”.

With “hyaluronic acid [HA, reference compound]” the “morphological observation of articular cartilage of the right knee joint” value [1] was “fewer cracks and a smoother surface, and less chondrocyte and proteoglycan loss were observed”, the “content of cartilage oligomeric matrix protein (COMP)” value [2] was “lower than that determined in the pathological control group” and the “content of IL-1β” value [2] was “lower than those determined in the pathological control group”. For the same substance, the “content of IL-6” value [2] was “lower than those determined in the pathological control group”, the “content of IL-17A” value [2] was “lower than those determined in the pathological control group” and the “content of TNF-α” value [2] was “lower than those determined in the pathological control group”. For the same substance, the “content of PGE2” value [2] was “lower than those determined in the pathological control group” and the “content of NO” value [2] was “lower than those determined in the pathological control group”.

“EGF: Epidermal growth factor (Cat. No. 02-108, Joycom Bio-chem) dissolved in PBS, 20 μg/g EGF; given to experimental group 1 (NSDSECPLSHDGYCLHDGVCMYIEALDKYACNCVVGYIGERCQYRDLKWWELR; UniProt P01133 971-1023, looked up)” was tested, and the “scale of OA (modified Mankin scoring, scale 1 to 5)” value ([1]; 30 μL intraarticular on day 3 and day 14, day 28, FIG. 2) was “significantly lower than that determined in the pathological control group”, the “morphological observation of articular cartilage of the right knee joint” value [1] was “fewer cracks and a smoother surface, and less chondrocyte and proteoglycan loss were observed” and the “content of cartilage oligomeric matrix protein (COMP)” value [2] was “lower than that determined in the pathological control group”. For the same substance, the “content of IL-1β” value [2] was “lower than those determined in the pathological control group”, the “content of IL-6” value [2] was “lower than those determined in the pathological control group” and the “content of IL-17A” value [2] was “lower than those determined in the pathological control group”. For the same substance, the “content of TNF-α” value [2] was “lower than those determined in the pathological control group”, the “content of PGE2” value [2] was “lower than those determined in the pathological control group” and the “content of NO” value [2] was “lower than those determined in the pathological control group”.

From patent US20230149510A1, “METHOD FOR ALLEVIATING ARTHRITIS USING EPIDERMAL GROWTH FACTOR” (Lovin BioMed Co., Ltd., priority 2021, published 2023)
